Results on 34 molecules are retold here after patent publication US9856216B2, “Compounds as TNIK, IKKε and TBK1 inhibitors and pharmaceutical composition comprising same” (GREEN CROSS CORPORATION, priority 2015, dated 2018).

pIC50: −log10 of the molar value.

T1 sequence (Q9UKE5 1-367 limits assumed): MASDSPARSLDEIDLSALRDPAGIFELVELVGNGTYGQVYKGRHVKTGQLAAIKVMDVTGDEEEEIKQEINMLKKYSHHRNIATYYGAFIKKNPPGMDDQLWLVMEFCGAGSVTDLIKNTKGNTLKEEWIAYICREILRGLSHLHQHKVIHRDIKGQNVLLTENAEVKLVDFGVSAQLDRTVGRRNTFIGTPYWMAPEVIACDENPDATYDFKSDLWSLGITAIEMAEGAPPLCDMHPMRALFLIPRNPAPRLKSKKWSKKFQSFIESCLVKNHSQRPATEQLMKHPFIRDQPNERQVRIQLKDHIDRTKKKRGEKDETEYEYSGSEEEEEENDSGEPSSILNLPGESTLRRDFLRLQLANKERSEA

This assay concerns the target T1, TNIK (Homo sapiens, UniProt Q9UKE5).
T1 construct: purchased Promega V4158
The assay is described as follows: ADP-Glo Kinase Assay, inhibition activity on TNIK. Format: biochemical. The conditions noted are these: read-out: TNIK. Here is the method:
The inhibition activities on TNIK, IKKε and TBK1 were measured by a luminometer, TNIK/IKKε/TBK1 Kinase Enzyme System (Promega, Ca# V4158; Invitrogen, PR8031B, Promega, Ca# V3991) and ADP-Glo Kinase Assay using ADP-Glo™ Kinase Analysis Kit (Promega, Ca# V9101) and a kinase reaction buffer [40 mM Tris(pH 7.5), 20 mM MgCl2, 0.1 mg/mL BSA] in accordance with the manufacturer's protocol.
A general note: ADP-Glo first removes unused ATP, then detects ADP through luciferase.
In the case of `O=C(Nc1ccc(-c2ccccc2)c2c1C(=O)NC2)c1ccccc1Cl` [Example 201, 2-Chloro-N-(3-oxo-7-phenylisoindolin-4-yl)benzamide], the pIC50 was 4.82.
Next, `COc1cccc(C(=O)Nc2ccc(-c3ccccc3)c3c2C(=O)NC3)c1` [Example 202, 3-Methoxy-N-(3-oxo-7-phenylisoindolin-4-yl)benzamide]: less than 4.70.
Turning to `O=C(Nc1ccc(-c2ccccc2)c2c1C(=O)NC2)c1cccs1` [Example 203, N-(3-oxo-7-phenylisoindolin-4-yl)thiophene-2-carboxamide], the pIC50 was 6.46.
In the case of `COc1ccc(C(=O)Nc2ccc(-c3ccc(C(C)=O)cc3)c3c2C(=O)NC3)cc1` [Example 204, N-(7-(4-acetylphenyl)-3-oxoisoindolin-4-yl)-4-methoxy benzamide], the pIC50 was less than 4.70.
Turning to `O=C(Nc1ccc(-c2ccc(F)cc2)c2c1C(=O)NC2)c1ccccc1` [Example 205, N-(7-(4-fluorophenyl)-3-oxoisoindolin-4-yl)benzamide], the pIC50 is less than 4.70.
Under `N#Cc1ccc(-c2ccc(NC(=O)c3ccccc3)c3c2CNC3=O)cc1` [Example 207, N-(7-(4-cyanophenyl)-3-oxoisoindolin-4-yl)benzamide] stands less than 4.70.
Under `N#Cc1ccc(C(=O)Nc2ccc(-c3ccccc3)c3c2C(=O)NC3)cc1` [Example 208, 4-Cyano-N-(3-oxo-7-phenylisoindolin-4-yl)benzamide] stands less than 4.70; under `Cc1ccc(-c2ccc(NC(=O)c3ccccc3)c3c2CNC3=O)cc1` [Example 209, N-(3-oxo-7-(p-tolyl)isoindolin-4-yl)benzamide], 5.55; under `O=C(Nc1ccc(-c2ccc(C(F)(F)F)cc2)c2c1C(=O)NC2)c1ccccc1` [Example 210, N-(3-oxo-7-(4-(trifluoromethyl)phenyl)isoindolin-4-yl) benzamide], less than 4.70.
In the case of `O=C(Nc1ccc(-c2ccccc2)c2c1C(=O)NC2)c1ccncc1` [Example 211, N-(3-oxo-7-phenylisoindolin-4-yl)isonicotinamide], the pIC50 was 6.15.
Next, `O=C(Nc1ccc(-c2ccccc2)c2c1C(=O)NC2)c1ccco1` [Example 212, N-(3-oxo-7-phenylisoindolin-4-yl)furan-2-carboxamide]: 6.52; `O=C(Nc1ccc(-c2ccccc2)c2c1C(=O)NC2)c1cccnc1` [Example 213, N-(3-oxo-7-phenylisoindolin-4-yl)nicotinamide]: 6.22; `O=C(Nc1ccc(-c2ccc3ncccc3c2)c2c1C(=O)NC2)c1ccc(F)cc1` [Example 214, 4-Fluoro-N-(3-oxo-7-(quinolin-6-yl)isoindolin-4-yl)benzamide]: less than 4.70.
Next, `O=C(Nc1ccc(-c2cccc3ncccc23)c2c1C(=O)NC2)c1ccc(F)cc1` [Example 215, 4-Fluoro-N-(3-oxo-7-(quinolin-5-yl)isoindolin-4-yl)benzamide]: 6.62; `O=C(Nc1ccc(-c2ccnc3ccccc23)c2c1C(=O)NC2)c1ccc(F)cc1` [Example 216, 4-Fluoro-N-(3-oxo-7-(quinolin-4-yl)isoindolin-4-yl)benzamide]: 6.80.
Next, `O=C(Nc1ccc(-c2cccc3cc[nH]c23)c2c1C(=O)NC2)c1ccc(F)cc1` [Example 217, N-(7-(1H-indol-7-yl)-3-oxoisoindolin-4-yl)-4-fluorobenzamide]: 5.53; `O=C(Nc1ccc(-c2cccc3[nH]cnc23)c2c1C(=O)NC2)c1ccc(F)cc1` [Example 218, N-(7-(1H-benzo[d]imidazol-4-yl)-3-oxoisoindolin-4-yl)-4-fluorobenzamide]: 6.23.
With `O=C(Nc1ccc(Cc2ccccc2)c2c1C(=O)NC2)c1ccc(F)cc1` [Example 219, N-(7-benzyl-3-oxoisoindolin-4-yl)-4-fluorobenzamide], the pIC50 was 4.86.
As for `COc1cccc(-c2ccc(NC(=O)c3ccco3)c3c2CN(C(=O)c2ccco2)C3=O)c1OC` [Example 224, N-(7-(2,3-dimethoxyphenyl)-2-(furan-2-carbonyl)-3-oxoisoindolin-4-yl)furan-2-carboxamide], the pIC50 was 6.00.
On to `COc1cccc(-c2ccc(NC(=O)c3cccs3)c3c2CN(C(=O)c2cccs2)C3=O)c1OC` [Example 225, N-(7-(2,3-dimethoxyphenyl)-3-oxo-2-(thiophene-2-carbonyl)isoindolin-4-yl)thiophene-2-carboxamide], for which the pIC50 is less than 4.70.
Next, `O=C(Nc1ccc(F)cc1)Nc1ccc(-c2ccccc2)c2c1C(=O)NC2` [Example 226, 1-(4-Fluorophenyl)-3-(3-oxo-7-phenylisoindolin-4-yl)urea]: 5.60.
As for `O=C(Nc1ccccc1)Nc1ccc(-c2ccccc2)c2c1C(=O)NC2` [Example 227, 1-(3-Oxo-7-phenylisoindolin-4-yl)-3-phenylurea], the pIC50 was 5.92.
Next, `N#Cc1ccc(NC(=O)Nc2ccc(-c3ccccc3)c3c2C(=O)NC3)cc1` [Example 228, 1-(4-Cyanophenyl)-3-(3-oxo-7-phenylisoindolin-4-yl)urea]: less than 4.70.
Under `CCCCNC(=O)Nc1ccc(-c2ccccc2)c2c1C(=O)NC2` [Example 229, 1-Butyl-3-(3-oxo-7-phenylisoindolin-4-yl)urea] stands 5.96; under `COc1ccc(NC(=O)Nc2ccc(-c3ccccc3)c3c2C(=O)NC3)cc1` [Example 230, 1-(4-Methoxyphenyl)-3-(3-oxo-7-phenylisoindolin-4-yl)urea], 6.05; under `O=C(Nc1ccc(-c2ccccc2)c2c1C(=O)NC2)NC1CCCCC1` [Example 231, 1-Cyclohexyl-3-(3-oxo-7-phenylisoindolin-4-yl)urea], less than 4.70.
Next, `Cc1ccc(NC(=O)Nc2ccc(-c3ccccc3)c3c2C(=O)NC3)cc1` [Example 232, 1-(3-Oxo-7-phenylisoindolin-4-yl)-3-(p-tolyl)urea]: 5.68; `COc1ccccc1NC(=O)Nc1ccc(-c2ccccc2)c2c1C(=O)NC2` [Example 233, 1-(2-Methoxyphenyl)-3-(3-oxo-7-phenylisoindolin-4-yl)urea]: 4.78; `CC(C)NC(=O)Nc1ccc(-c2ccccc2)c2c1C(=O)NC2` [Example 234, 1-Isopropyl-3-(3-oxo-7-phenylisoindolin-4-yl)urea]: 5.72.
On to `O=C(Nc1ccc([N+](=O)[O-])cc1)Nc1ccc(-c2ccccc2)c2c1C(=O)NC2` [Example 235, 1-(4-Nitrophenyl)-3-(3-oxo-7-phenylisoindolin-4-yl)urea], for which the pIC50 is 5.34.
Next, `CCNC(=O)Nc1ccc(-c2ccccc2)c2c1C(=O)NC2` [Example 236, 1-Ethyl-3-(3-oxo-7-phenylisoindolin-4-yl)urea]: 6.24.
Next, `CC(=O)c1ccc(NC(=O)Nc2ccc(-c3ccccc3)c3c2C(=O)NC3)cc1` [Example 237, 1-(4-Acetylphenyl)-3-(3-oxo-7-phenylisoindolin-4-yl)urea]: 5.31.
Under `Cc1ccccc1NC(=O)Nc1ccc(-c2ccccc2)c2c1C(=O)NC2` [Example 238, 1-(3-Oxo-7-phenylisoindolin-4-yl)-3-(o-tolyl)urea] stands less than 4.70; under `O=C(Nc1ccc(-c2ccccc2)c2c1C(=O)NC2)NC1CCCC1` [Example 239, 1-Cyclopentyl-3-(3-oxo-7-phenylisoindolin-4-yl)urea], less than 4.70.
